Test results reported in patent US20040180394A1, “Assays for inositol phosphates” (priority 2001, published 2004).
Where no end group is shown, it is not given here.

How the values were obtained:
untransfected T24 cells = assay: Inositol phosphate SPA assay in untransfected T24 cells; format: cell-based; conditions: 1 mM carbachol
parent T24 cell line = assay: FLIPR intracellular calcium in parent T24 cell line; format: cell-based
[1] = system: acetylcholine receptors naturally expressed in HEK293 cells; assay: Inositol phosphate SPA assay in wild-type HEK293 cells; format: cell-based, human; conditions: 1 mM carbachol, 5 mM LiCl where used (FIG. 9)
From the text: See Example 8 for details.

[2] = system: untransfected CHO/NFAT cells; assay: Inositol phosphate assay in untransfected CHO/NFAT cells; format: cell-based; conditions: untransfected CHO/NFAT cells (FIGS. 7A-D), 10 nM NPFF
From the text: There was no response to NPFF in untransfected CHO/NFAT cells (FIGS. 7A-D).

How did the “response to agonist (inositol phosphates)” value (untransfected T24 cells) turn out when `C[N+](C)(C)CCOC(N)=O` [carbachol] was run?
Its value is “no response”.

What about the “rise in intracellular calcium” value (parent T24 cell line) of the same compound?
Its value is “no rise in intracellular calcium”.

And the inositol phosphate level [1]?
Its inositol phosphate level is “increase of inositol phosphate”.

“NPFF: agonist used at 10 nM to activate the human neuropeptide FF receptor (FLFQPQRF; ends and bridges not checked; UniProt O15130 69-76, looked up)” was tested. Which “response to agonist (inositol phosphates)” value [2] did it give?
The value was “no response”.
